How the values were obtained:
GBM6138 = test: Antiproliferative activity, MTT assay, GBM6138; type: cell-based; conditions: low-passage glioblastoma GBM6138, 72 h
GBM5522 = test: Antiproliferative activity, MTT assay, GBM5522; type: cell-based; conditions: low-passage glioblastoma GBM5522, 72 h

Q: What does the source list for `CC1(C)Cc2c(C#N)c(SCC(N)=O)nc(N3CCNCC3)c2CO1` [DO11-37, 2-[(5-Cyano-3,3-dimethyl-8-piperazin-1-yl-3,4-dihydro-1H-pyrano[3,4-c]pyridin-6-yl)thio]acetamide]?
A: IC50 (GBM6138): 571 ± 77.7 µM; IC50 (GBM5522): 309 ± 63.3 µM

Q: What does the source list for `CC1(C)Cc2c(C#N)c(SCc3ccccc3Cl)nc(N3CCNCC3)c2CO1` [DO11-42, 6-[(2-Chlorobenzyl)thio]-3,3-dimethyl-8-piperazin-1-yl-3,4-dihydro-1H-pyrano[3,4-c]pyridine-5-carbonitrile]?
A: IC50 (GBM6138): 51.2 ± 10.7 µM; IC50 (GBM5522): 4.2 ± 1.3 µM

Q: With `COc1cccc(NC(=O)CSc2nc(N3CCNCC3)c3c(c2C#N)CC(C)(C)OC3)c1` [DO11-47, 2-[(5-Cyano-3,3-dimethyl-8-piperazin-1-yl-3,4-dihydro-1H-pyrano[3,4-c]pyridin-6-yl)thio]-N-(3-methoxyphenyl)acetamide] as the molecule, how does the IC50 (GBM6138) read?
A: 104 ± 22.1 µM

Q: And the IC50 (GBM5522)?
A: 20 ± 6.8 µM

Q: Which results are given for `COc1ccccc1NC(=O)CSc1nc(N2CCNCC2)c2c(c1C#N)CC(C)(C)OC2` [DO11-48, 2-[(5-Cyano-3,3-dimethyl-8-piperazin-1-yl-3,4-dihydro-1H-pyrano[3,4-c]pyridin-6-yl)thio]-N-(2-methoxyphenyl)acetamide]?
A: IC50 (GBM6138): 27.9 ± 2.6 µM; IC50 (GBM5522): 3.8 ± 1.5 µM

Q: How did the IC50 (GBM6138) turn out when `CC(=O)c1ccc(NC(=O)CSc2nc(N3CCNCC3)c3c(c2C#N)CC(C)(C)OC3)cc1` [DO11-50, N-(4-acetylphenyl)-2-[(5-cyano-3,3-dimethyl-8-piperazin-1-yl-3,4-dihydro-1H-pyrano[3,4-c]pyridin-6-yl)thio]acetamide] was run?
A: 54.7 ± 28.7 µM

Q: What about the IC50 (GBM5522) of the same molecule?
A: 15.9 ± 4.2 µM

Q: `CNC(=O)c1cc(Oc2ccc(NC(=O)Nc3ccc(Cl)c(C(F)(F)F)c3)cc2)ccn1` [Sorafenib, reference compound] was tested. Which IC50 (GBM5522) did it give?
A: 84 ± 14 µM
